Where two headings read alike, the source gives them in different places. Ends that are not written are not given here. Peptide text beside a SMILES is read from it.
How the values were obtained:
[1] = tested on: Jurkat (blood) cells; format: cell-based, human; conditions: 72 h
Experimental: (§1) The cytotoxic effects of brevinin-1 E8.13 were evaluated in six human cancer cell lines: A549 (lung), AGS (stomach), Jurkat (blood), HCT116 (colon), HL60 (blood), and HepG2 (liver). All cell lines were cultured in either DMEM or RPMI-1640 medium supplemented with 10% fetal bovine serum (FBS) and 1% penicillin–streptomycin, under conditions of 5% CO2 at 37 °C. The 3-(4,5-dimethylthiazol-2-yl)-2,5-diphenyltetrazolium bromide (MTT) assay was used to assess cell viability. Cells were seeded at a density of 10^4 cells per well in 96-well plates and incubated at 37 °C. After 72 h of treatment with the peptide, 10 µL of MTT reagent (Merck, Darmstadt, Germany) in PBS, pH 7.0 was added to each well and incubated for 4 h. Following supernatant removal, 100 µL of dimethyl sulfoxide (DMSO, Merck, Germany) was added to dissolve the resulting formazan crystals. Absorbance was measured at 570 nm using a microplate reader. Each experimental condition was performed in triplicate. The cytotoxicity of the peptide was also evaluated in normal human dermal fibroblast cells using the same assay.

[2] = tested on: HepG2 (liver) cells; format: cell-based, human; conditions: 72 h
Experimental: as §1

[3] = tested on: A549 (lung) cells; format: cell-based, human; conditions: 72 h
Experimental: as §1

[4] = tested on: HCT116 (colon) cells; format: cell-based, human; conditions: 72 h
Experimental: as §1

[5] = tested on: AGS (stomach) cells; format: cell-based, human; conditions: 72 h
Experimental: as §1

[6] = tested on: HL60 (blood) cells; format: cell-based, human; conditions: 72 h
Experimental: as §1

[7] = tested on: human cancer cell lines (A549, AGS, Jurkat, HCT116, HL60, HepG2); format: cell-based
Experimental: as §1

[8] = tested on: Pseudomonas aeruginosa; test: Antibacterial activity (MIC, broth dilution in 96-well plates); format: cell-based; conditions: LB broth, 10^6 CFU/mL, 24 h at 37 °C, OD 600 nm, triplicate
Experimental: (§2) The antibacterial activity of brevinin-1 E8.13 was evaluated against six bacterial strains, including two Gram-positive species (Staphylococcus aureus and Bacillus subtilis) and four Gram-negative species (Escherichia coli, Acinetobacter baumannii, Klebsiella pneumoniae, and Pseudomonas aeruginosa). All strains were isolated and identified by the Department of Microbiology, Thanh Nhan Hospital (Hanoi, Vietnam), and are currently maintained at the Laboratory of Cell Biotechnology and Bioassay, Institute of Biology, Vietnam Academy of Science and Technology (VAST).
(§3) Each bacterial strain was first cultured overnight in Luria–Bertani (LB) broth. Then, 100 μL of the overnight culture was transferred to 5 mL of fresh LB broth and incubated at 37 °C with shaking until reaching the logarithmic growth phase. Cultures were adjusted to a concentration of 10^6 colony-forming units (CFU)/mL and dispensed into 96-well plates. The peptide was added at final concentrations ranging from 24.8 μM to 0.4 μM. After 24 h of incubation at 37 °C, bacterial growth was quantified by measuring optical density (OD) at 600 nm using a Synergy HT microplate reader (BioTek, Winooski, VT, USA). All concentrations were tested in triplicate.

[9] = tested on: Klebsiella pneumoniae; test: as above; format: cell-based; conditions: LB broth, 10^6 CFU/mL, 24 h at 37 °C, OD 600 nm, triplicate
Experimental: as §2, §3

[10] = tested on: Acinetobacter baumannii; test: as above; format: cell-based; conditions: LB broth, 10^6 CFU/mL, 24 h at 37 °C, OD 600 nm, triplicate
Experimental: as §2, §3

[11] = Circular dichroism, secondary structure estimated with CDNN 2.1; format: physicochemical; conditions: 0.3 mg/mL in deionized water, CDNN 2.1, 190–260 nm range
Experimental: The CD spectrum of the peptide brevinin-1 E8.13 was measured to evaluate its secondary structure. The peptide was dissolved in deionized water at a concentration of 0.3 mg/mL. Measurements were performed using a ChiraScan™ Circular Dichroism Spectrometer (Applied Photophysics, Leatherhead, Surrey, UK) with a quartz cuvette of 1 mm path length. The CD spectra were recorded over a wavelength range of 180–260 nm using the default instrument settings recommended by the manufacturer (scanning speed, integration time, and bandwidth). Each sample was measured three consecutive times, and the solvent-corrected average spectrum was used for analysis. The resulting spectra were processed using the CDNN 2.1 (Circular Dichroism Neural Network) software to estimate the proportions of secondary structural elements, including α-helix, β-sheet, β-turn, and random coil.

[12] = tested on: Staphylococcus aureus; format: cell-based; conditions: for MIC S. aureus: 24 h
Experimental: as §2, §3

[13] = tested on: Escherichia coli; format: cell-based
Experimental: as §2, §3

[14] = tested on: Bacillus subtilis; format: cell-based
Experimental: as §2, §3

[15] = LB broth, 10^6 CFU/mL, 24 h at 37 °C, OD 600 nm, triplicate

Q: Which IC50 [1] does the source give for `CC[C@H](C)[C@H](NC(=O)[C@H](C)NC(=O)[C@H](C)NC(=O)[C@@H]1CCCN1C(=O)[C@@H](NC(=O)[C@H](CC(C)C)NC(=O)[C@H](CCCCN)NC(=O)[C@H](CO)NC(=O)[C@H](C)NC(=O)[C@@H](NC(=O)[C@H](CCCCN)NC(=O)[C@H](Cc1ccccc1)NC(=O)[C@H](CC(C)C)NC(=O)[C@H](C)NC(=O)CNC(=O)[C@H](CC(C)C)NC(=O)[C@@H](N)Cc1ccccc1)C(C)C)C(C)C)C(=O)N[C@@H](CS)C(=O)N[C@@H](CO)C(=O)N[C@@H](Cc1ccccc1)C(=O)N[C@@H](CO)C(=O)N[C@@H](CCCCN)C(=O)N[C@@H](CCCCN)C(=O)N[C@@H](CS)C(N)=O` [Brevinin-1 E8.13] (H-FLGALFKVASKLVPAAICSFSKKC-NH2; N-terminus assumed) here?
A: The IC50 was 12.9 µM.

Q: And the IC50 [2]?
A: Its IC50 is 11.7 µM.

Q: And the IC50 [3]?
A: Its IC50 is 31.6 µM.

Q: What about the IC50 [4] of the same molecule?
A: The IC50 was 9.2 µM.

Q: And the IC50 [5]?
A: Its IC50 is 7.5 µM.

Q: What about the IC50 [6] of the same molecule?
A: The IC50 was 14.8 µM.

Q: What about the IC50 ([7]; 72 h) of the same molecule?
A: Its IC50 is 7.5 to 14.8 µM.

Q: What about the “Selectivity Index (SI) toward cancer cells” value ([7]; SI = IC50 (HDF) or HC50 / IC50 (cancer cells), result in words) of the same molecule?
A: Its value is “moderate selectivity”.

Q: And the “MIC P. aeruginosa” value [8]?
A: The value was > 24.8 µM.

Q: And the “MIC K. pneumonia” value [9]?
A: Its value is > 24.8 µM.

Q: And the “MIC A. baumanii” value [10]?
A: The value was > 24.8 µM.

Q: And the “Antiparallel β-sheet content (CD)” value [11]?
A: The value was 36.2%.

Q: And the “Random coil content (CD)” value [11]?
A: Its value is 27.74%.

Q: What about the “α-helix content (CD)” value [11] of the same molecule?
A: Its value is 11.83%.

Q: What about the “β-turn content (CD)” value [11] of the same molecule?
A: Its value is 15.48%.

Q: And the “MIC S. aureus” value [12]?
A: Its value is 1.5 µM.

Q: What about the “Selectivity Index (SI) toward Staphylococcus aureus over normal cells” value ([12]; SI = IC50 (HDF) or HC50 / MIC, result in words) of the same molecule?
A: The value was “high selectivity (SI > 10 reflects high selectivity)”.

Q: What about the “MIC E. coli” value [13, 15] of the same molecule?
A: Its value is > 24.8 µM.

Q: What about the “MIC B. subtilis” value [14, 15] of the same molecule?
A: Its value is > 24.8 µM.

Q: Which results are given for “FAKWAFKWLKK-NH2 [GA-K4AL, reference compound]”?
A: MIC S. aureus [12]: 2.5 µM; MIC E. coli ([13]; 24 h): 10.1 µM; MIC B. subtilis ([14]; 24 h): >41.8 µM

— publication PMC12412326, “Cloning and Functional Characterization of a Novel Brevinin-1-Type Peptide from Sylvirana guentheri with Anticancer Activity” (Current Issues in Molecular Biology, 2025)
